The values that follow come from PMC5543107, “Inhibition of glutamate decarboxylase (GAD) by ethyl ketopentenoate (EKP) induces treatment-resistant epileptic seizures in zebrafish” (Scientific Reports, 2017).

One data set relates to mice. Details: method as in PMID 29640. To be noted: intracerebroventricular (icv) administration; cited from earlier work.
Data set [1] deals with 7 dpf zebrafish larvae. Nature of the data set: EKP-induced locomotor activity, automated video tracking. Type of data set: in vivo, Danio rerio. Here is the method:
Larvae (6 dpf) in 100 µl VHC were arrayed individually in a 96-well plate (tissue culture plate, flat bottom, Falcon, USA) and kept for 18 h in the dark at 28 °C. Prior to tracking the following day (7 dpf) 100 μl of VHC or EKP stock solution was added to each well to obtain a range of EKP concentrations (200 μM-800 μM). The plates were placed in an automated video tracking device (ZebraBox^TM apparatus; Viewpoint, Lyon, France) and 5 min later the locomotor behavior of the larvae was monitored for 2 h in the dark at 28 °C. Locomotor activity was quantified using ZebraLab™ software (Viewpoint, Lyon, France) and expressed in “actinteg” units per 5-min interval. The actinteg value is defined as the sum of all image pixel changes detected during the time window.
These seizures are defined as rapid corkscrew-like accompanied with entire body jerking and twitching, which are easily distinguished from other behavioral abnormalities (for description of phase 1 and 3 seizures, see results).

Data set [2] has as its system 7 dpf zebrafish larvae. Nature of the data set: Survival rate of larvae exposed to EKP. The class given is in vivo, Danio rerio. Particulars: 400 μM EKP, first 30 min. Here is the method: Larvae (7 dpf) were arrayed individually in a 96-well plate, exposed to EKP (200 μM-800 μM) or VHC (control) and immediately scored under a stereomicroscope for lethality every 5 min for 1 h.

Data set [3] has as its system 7 dpf zebrafish larvae. Kind of data set: Local field potential (LFP) recordings in the optic tectum after EKP. The class given is in vivo, Danio rerio. Here is the method:
Larvae (6 dpf) in 100 µl VHC were arrayed individually in a 96-well plate and kept for 18 h in the dark at 28 °C. […] Next, the treated larva was embedded ventral side down in 2% low melting point agarose bathed in artificial cerebrospinal fluid (ACSF, 124 mM NaCl, 2 mM KCl, 2 mM MgSO4, 2 mM CaCl2, 1.25 mM KH2PO4, 26 mM NaHCO3, and 10 mM glucose). A blunt glass electrode (soda lime glass, Hilgenberg, Germany) was pulled with DMZ Universal Puller (Zeitz, Germany) to an opening of 15–20 microns, filled with ACSF and placed on the skin above the optic tectum. The recordings were performed using WinEDR (John Dempster, University of Strathclyde, UK). Differential signal was band pass filtered at 0.3–300 Hz and digitized at 2 kHz via a PCI-6251 interface (National Instruments, UK). LFP recordings started each time exactly 2 min after the removal of the larva from the EKP solution (or VHC) and were continued for 10 min at room temperature (24 °C).
EKP-induced events were considered as epileptiform activity when their signal exceeded three times the baseline and lasted for minimum 100 msec, as described previously. Electrophysiological recordings were analyzed in a blinded way using Clampfit 10.2 software (Molecular Devices, USA).

The subject of another data set is c-fos expression. Kind of data set: c-fos expression in larval heads by qPCR. Particulars: 7 dpf larval heads, 15 min, 400 μM EKP or 20 mM PTZ (positive control). The class given is in vivo, Danio rerio. Here is the method: To measure the seizure-related changes in c-fos mRNA expression in the CNS, 12 larvae (7 dpf) were treated with either 20 mM PTZ, 400 μM EKP or VHC for 15 min and then rapidly decapitated. The heads were immediately processed for RNA isolation followed by cDNA synthesis as described for gad1b and gad2. qPCR analysis of c-fos mRNA expression using Bio-Rad 20x PrimePCR assays (c-fos assay ID: qDreCED0015103) was performed as described for gad1b and gad2, and normalized to the housekeeping gene ef1α and β-actin 1 (primers, Table S1).
In general terms: Real-time PCR tracks product formation cycle by cycle.

The subject of data set [4] is Tg(elavl3:GA) zebrafish larvae. Kind of data set: Neuroluminescence recording of Tg(elavl3:eGFP-apoAequorin) larvae exposed to EKP. The class given is in vivo, Danio rerio. To be noted: 400 µM EKP, 30-min recording, vs VHC. Here is the method:
Tg(elavl3:eGFP-apoAequorin) zebrafish larvae were visually screened for even GFP expression at 3 dpf. Selected larvae were incubated with VHC in 40 µM CLZN-h for 18–24 h in the dark at 28 °C[38]. Excess of CLZN-h was removed by washing larvae repeatedly in E3 medium afterwards. […] The recordings started each time exactly 5 min after EKP exposure and were continued for 30 min. Photons emitted were detected by a photon-counting tube (Type H3460–04, Hamamatsu Photonics, Japan) that was positioned about 2 cm above the larvae. Light impulses were discriminated, prescaled and counted with a PC-based 32-bit counter/timer board (PCI-6601, National Instruments Corporation, Austin, TX, USA). The number of impulses occurring during a 5-sec time interval was monitored with custom-built software. Analysis of the bioluminescence recordings was done in a blinded way.

The subject of data set [5] is EKP-treated zebrafish larvae. Kind of data set: Effect of ASDs on EKP-induced epileptiform discharges (LFP). Type of data set: in vivo, Danio rerio. Particulars: ASD at MTC, 18 h pre-incubation, 400 µM EKP, 10-min LFP recording. Here is the method:
Then, the larvae were treated with 400 µM EKP (or VHC), embedded in agarose, and the LFP recordings were performed as described earlier.

Data set [6] has as its system EKP-treated Tg(elavl3:GA) zebrafish larvae. Kind of data set: Effect of ASDs on EKP-induced neuroluminescent events. The class given is in vivo, Danio rerio. To be noted: ASD at MTC (ETS 250 µM, TGB 50 µM), 18 h, 400 µM EKP, 30-min recording. Here is the method:
Recordings were performed as described earlier.

The target of a further data set is GAD. More on the design: method as in PMID 29640. To be noted: in vitro studies; read-out: Ki for GAD inhibition; cited from earlier work.
Another data set has as its system zebrafish larvae. More on the design: method as in PMID 25845493. Particulars: AG 200 mM − 300 mM; cited from earlier work.
Data set [7] deals with EKP-treated zebrafish larvae. Kind of data set: Effect of ASDs on EKP-induced locomotion activity. The class given is in vivo, Danio rerio. Particulars: ASD at MTC, 18 h pre-incubation, 400 µM EKP. Here is the method: Then, the larvae were treated with 400 µM EKP (or VHC) and the locomotion activity was monitored for 30 min (after 5 min of habituation) as described earlier. The average amount of movement per 5-min intervals was measured, quantified and normalized to the EKP control group for the entire 30-min tracking session or per 5-min interval.

Setting [8] is: 7 dpf larvae, 200-800 μM tested.

Several values for one entry are separate records, joined by “and”; a condition that tells them apart may be missing. Equal entries are not always repeated.

Turning to `C=CC[C@H](N)C(=O)O` [L-AG], the “ED50 for seizure induction” value with mice was 0.375 mg/kg.
ethyl ketopentenoate [EKP]: in the data set on 7 dpf zebrafish larvae [1] (400 μM EKP, 7 dpf larvae, vs VHC), the Locomotor activity entry is “robust increase of locomotor activity”. In the data set with 7 dpf zebrafish larvae [1] (setting [8]), the “EKP concentrations at which a second phase (hyperactivity plateau) followed” value was no less than 300 µM and the “EKP concentrations with third phase (irreversible decline of total larval movement, paralysis, death)” value is 300 to 800 µM. The “Fold lower concentration inducing hyperactivity compared with AG” value in the data set with 7 dpf zebrafish larvae [1] (zebrafish larvae, AG data ref 13) stood at 100 fold. For the same compound, in the data set on 7 dpf zebrafish larvae [2], the Larval death result is given as “without inducing any larval death”. The “Mean frequency of epileptiform events” value in the data set with 7 dpf zebrafish larvae [3] (400 μM EKP 15 min, optic tectum, 10-min recording, n = 58) is 55.76 ± 6.87 events/10 min and 55.76 ± 6.872 events/10 min. For the same compound, the “Larvae with multiple epileptiform events” value in the data set with 7 dpf zebrafish larvae [3] (400 μM EKP, number of larvae out of total) is recorded as 58/58. Further, the “c-fos expression compared to VHC” value in the data set on c-fos expression is “significantly increased”. Moreover, the “Averaged aequorin light signal” value in data set [4] is recorded as “increased”.
Turning to `C=CC[C@@H](N)C(=O)O` [D-AG], in the data set on mice, the “ED50 for seizure induction” value was 0.804 mg/kg.
Regarding `O=C1NC(=O)C(c2ccccc2)(c2ccccc2)N1` [PHT, phenytoin], the “Effect on number of epileptiform discharges generated by EKP” value (“Effect on number” for short) in [5] is listed as “did not show significant effects”. Also, the “Effect on EKP-induced neuronal activity (cumulative photons emitted)” value (“Effect on EKP-induced neuronal activity” for short) in data set [6] was “significantly diminished”.
As usually defined, the Ki is a measure of affinity in units of concentration, obtained from inhibition or displacement. For `C=CCC(=O)C(=O)O` [KPA, 2-keto-4-pentenoic acid], on GAD, the inhibition constant (Ki) is 0.001 mM. Also, the “ED50 for seizure induction” value in the data set with mice is 0.0145 mg/kg.
For `C1CCc2nnnn2CC1` [PTZ, Pentylenetetrazol], the “c-fos expression compared to VHC” value with c-fos expression is recorded as “significantly increased”.
With `C=CCC(N)C(=O)O` (stereo not drawn) [AG, 2-amino-4-pentenoic acid], the inhibitory constant (Ki) at GAD is roughly 50 mM. In the data set on zebrafish larvae, the “Outcome of seizures at high AG concentrations” value was “lethal”.
Regarding `CCOC(=O)Nc1ccc(NCc2ccc(F)cc2)cc1N` [RGB, retigabine], in data set [5], the “Effect on number” value is given as “did not show significant effects”. Further, the “Effect on EKP-induced neuronal activity” value in data set [6] is “significantly diminished”.
The matching figures for `NS(=O)(=O)Cc1noc2ccccc12` [ZSM, zonisamide]: “significantly attenuated” and “significantly diminished”.
The matching figures for `CC1(C)O[C@@H]2[C@@H](CO[C@@]3(COS(N)(=O)=O)OC(C)(C)O[C@@H]23)O1` [TPM, topiramate]: “significantly attenuated” and “significantly diminished”.
As to `N#Cc1ccccc1-c1cc(-c2ccccn2)cn(-c2ccccc2)c1=O` [PER, perampanel], the “Effect on EKP-induced locomotion (whole 30-min recording)” value in [7] was “significantly prevented”. For the same compound, in data set [5], the “Effect on number” value is given as “significantly attenuated”. In addition, in data set [6], the “Effect on EKP-induced neuronal activity” value is on record as “significantly diminished”.
